This is an account of results in patent US11672775B2, “Treprostinil prodrugs” (United Therapeutics Corporation, priority 2016, dated 2023).

In brackets after ≈: the same amount, converted by molar mass. Entries after “also recorded” stand apart in the source; their conditions may differ.

The nature of data set [1]: Equilibrium solubility in vehicle. The data set is classed as physicochemical. The conditions noted are these: 20 mM sodium phosphate dibasic with 125 mM sodium chloride; for solubility thermodynamic at 23 h: read-out: Equilibrium solubility, T0 hours Concentration; for solubility thermodynamic at 24 h: read-out: Equilibrium solubility, T24 hours Concentration; for solubility thermodynamic at 72 h: read-out: Equilibrium solubility, T72 hours Concentration. The protocol: (§1) Each prodrug was dissolved in a vehicle containing 20 mM sodium phosphate dibasic with 125 mM sodium chloride. Prodrugs were prepared at saturation concentrations by weighing 15-30 mg of prodrug in to a 4 mL clear glass vial and dissolving in an appropriate volume of vehicle (0.5-1.0 mL) to achieve a nominal saturation concentration of 30 mg/mL. The solutions were mixed for 23 hours on a rotating mixer. […] The resultant supernatant solutions were isolated from undissolved prodrug by centrifugation at 15000 RPM for 15 min. Supernatants were transferred to clear glass vials and stored at ambient temperature. […] The resultant samples were assayed against treprostinil to determine prodrug concentration. At each testing interval (0, 24, 72 hours) the supernatant was assayed for prodrug concentration and purity by area %.

Data set [2] can be described thus: Solution stability in vehicle (UPLC area %). The data set is classed as physicochemical. As to conditions: for T0 Residual Treprostinil / Solution stability, T0 Purity: 20 mM sodium phosphate dibasic with 125 mM sodium chloride; for Solution stability, T0 Purity: ambient; for T24 Residual Treprostinil / T72 Residual Treprostinil / Solution stability, T24 hours Purity / Solution stability, T72 hours Purity: same vehicle. The protocol:
as §1

For data set [3], the system named is Sprague Dawley rats. Kind of data set: Rat intraplantar injection model, von Frey test (Example 9). The data set is classed as in vivo, Sprague Dawley rat. The conditions noted are these: for sensitivity to mechanical stimulation vs similar doses of treprostinil: both doses. The protocol: (§2) Male Sprague Dawley rats (n=112) were allocated into 14 groups of 8/group. The study was run in 2 cycles, on consecutive days, 7 groups per cycle. Each cycle was composed of a Saline group, PBS group, which served as the control, and also treprostinil at a dose of 100 μg/mL or 1 μg/mL.
(§3) Animals were administered 0.1 mL of test material by subcutaneous injection into the paw pad (Intraplantar injection) at time zero. Animals were subsequently evaluated for their response to mechanical (von Frey filaments) and thermal stimuli, 15 and 90 minutes post-injection. The von Frey test was conducted prior to the thermal test, which followed immediately within minutes for each animal. In addition, clinical observation scoring of the animal's reaction to injection was conducted. FIG. 16 schematically illustrates the study design.
Mechanical pain sensitivity was tested using the von Frey test, which measures the withdrawal force threshold of the animals. The lower the force applied represents a greater sensitivity to the stimulus. The von Frey test was performed 15 and 90 minutes post-Test Item injection.

For data set [4], the system named is Sprague Dawley rats. In words: Rat intraplantar injection model, thermal pain sensitivity (Example 9). The format is in vivo, Sprague Dawley rat. The conditions noted are these: both doses (1 and 100 μg/mL); both time points. How it is done: as §2, §3
The sensitivity of animals to a thermal pain stimulus was assessed immediately following the von Frey test. The time until withdrawal of the right-injected leg from a heat source was measured, and the lower (faster) the time of response represents a greater sensitivity to the stimulus. The test was performed 15 and 90 minutes post-Test Item injection.

Data set [5] concerns Sprague Dawley rats. Kind of data set: Rat intraplantar injection model, clinical observation score (Example 9). The data set is classed as in vivo, Sprague Dawley rat. As to conditions: for clinical score: 15 min; for clinical score vs similar doses of treprostinil: both doses. The protocol: as §2, §3
A Clinical observation score was assigned by assessing for redness, swelling and paw placement.

A short description of data set [6]: Stability in 200 mM potassium phosphate buffer (pH 7.4). The data set is classed as physicochemical. The conditions noted are these: 1 μM. The protocol: According to the earlier aqueous solution stability study, all prodrugs are stable in 20 mM Sodium Phosphate dibasic with 125 mM NaCl at saturation concentrations (3-30 mg/ml). Also, in the method development work, it was also observed that the most unstable prodrugs III, IV and XIV were stable in 200 mM potassium phosphate buffer (pH 7.4) at a low concentration of 1 μM.

[7] abbreviates: aqueous buffer, thermodynamic from solid, T0 hours.
Where [8] appears, read: aqueous buffer, thermodynamic from solid, T24 hours.
The mark [9] stands for this setting: aqueous buffer, thermodynamic from solid, T72 hours.
Where [10] appears, read: 1 μg/mL or 100 μg/mL, 15 and 90 minutes post-injection.
[11] abbreviates: only the 1 μg/mL dose, both time points.
[12] abbreviates: 100 μg/mL (cycle 1), 90 minutes post-injection.

Regarding `CCCCC[C@H](O)CC[C@@H]1[C@H]2Cc3cccc(OCC(=O)N[C@@H](C)C(=O)O)c3C[C@H]2C[C@H]1O` [Prodrug X, treprostinil alanine amide], in data set [1] (setting [7]), the solubility thermodynamic at 23 h worked out at 10000 µg/mL (≈ 21.7 mM). In addition, the solubility thermodynamic at 24 h in data set [1] (setting [8]) was determined as 10600 µg/mL (≈ 23 mM). The solubility thermodynamic at 72 h in data set [1] (setting [9]) came out at 11300 µg/mL (≈ 24.5 mM). For the same compound, in data set [2], the “T0 Residual Treprostinil” value is 0.08 % Area; the “Solution stability, T0 Purity” value is on record as 96.59 % Area; the “T24 Residual Treprostinil” value turned out to be 0.08 % Area; the “T72 Residual Treprostinil” value came out at 0.08 % Area. Besides, in data set [2], the “Solution stability, T24 hours Purity” value is listed as 96.32 % Area and the “Solution stability, T72 hours Purity” value is recorded as 96.54 % Area.
Regarding “treprostinil monomethyl carbamate [Prodrug VIII]”, in data set [1] (T0 hours), the “Equilibrium solubility, T0 hours Concentration” value amounted to 11000 µg/mL. In data set [1] (T24 hours), the “Equilibrium solubility, T24 hours Concentration” value came out at 10500 µg/mL. The “Equilibrium solubility, T72 hours Concentration” value in data set [1] (T72 hours) came to 10900 µg/mL. Moreover, in data set [2], the “T0 Residual Treprostinil” value worked out at 0.11 % Area; the “Solution stability, T0 Purity” value amounted to 96.41 % Area; the “T24 Residual Treprostinil” value is given as 0.11 % Area; the “T72 Residual Treprostinil” value came out at 0.15 % Area. Moreover, in data set [2], the “Solution stability, T24 hours Purity” value was determined as 96.40 % Area and the “Solution stability, T72 hours Purity” value is 96.34 % Area. Moreover, the “von Frey withdrawal force threshold vs PBS-treated group” value in data set [3] (setting [10]) is on record as “no statistically significant difference”. Besides, in data set [3] (both time points), the “sensitivity to mechanical stimulation vs similar doses of treprostinil” value is reported as “statistically significant reduced sensitivity”. Also, the “thermal paw withdrawal time vs PBS group” value in data set [4] is “trend toward reduction in the time of response”. For the same compound, the clinical score result in data set [5] (100 μg/mL (cycle 1)) is listed as “non-zero”. The “clinical score vs PBS group” value in data set [5] (100 μg/mL, both time points) is recorded as “not statistically significantly different”. Besides, the “clinical score vs similar doses of treprostinil” value in data set [5] (both time points) is on record as “reduced clinical score”.
As to `CCCCC[C@H](O)CC[C@@H]1[C@H]2Cc3cccc(OCC(=O)O)c3C[C@H]2C[C@H]1OC(=O)N(C)C` [Prodrug I, treprostinil ring carbamate], the “von Frey withdrawal force threshold vs PBS-treated group” value in data set [3] (1 μg/mL, both time points post-injection) was “no statistically significant difference”; in data set [3] (100 μg/mL, 15 minutes post-injection), “no statistically significant difference”; in data set [3] (100 μg/mL, 90 minutes post-injection) it was “statistically significant increased sensitivity”. Besides, the “sensitivity to mechanical stimulation vs similar dose of treprostinil” value in data set [3] (setting [11]) is listed as “reduced sensitivity”. Besides, the clinical score result in data set [5] (100 μg/mL (cycle 1)) is “non-zero”. Moreover, in data set [5] (setting [12]), the “clinical score vs PBS group” value is reported as “non-zero; also recorded: statistically significant increase in the clinical score”. Also, in data set [5] (setting [11]), the “clinical score vs similar dose of treprostinil” value was “reduced clinical score”.
Regarding `CCCCC[C@H](O)CC[C@@H]1[C@H]2Cc3cccc(OCC(=O)NC(C(=O)O)C(C)C)c3C[C@H]2C[C@H]1O` (stereo partly drawn) [Prodrug XI, treprostinil valine amide], the solubility thermodynamic at 23 h in data set [1] (setting [7]) is 11500 µg/mL (≈ 23.5 mM). The solubility thermodynamic at 24 h in data set [1] (setting [8]) was 11300 µg/mL (≈ 23.1 mM). The solubility thermodynamic at 72 h in data set [1] (setting [9]) was 11500 µg/mL (≈ 23.5 mM). In data set [2], the “Solution stability, T0 Purity” value was determined as 99.49 % Area; the “Solution stability, T24 hours Purity” value was determined as 99.39 % Area; the “Solution stability, T72 hours Purity” value is 98.92 % Area.
The solubility is the concentration that dissolves in the medium under given conditions. Consider `CCCCC[C@H](O)CC[C@@H]1[C@H]2Cc3cccc(OCC(=O)N[C@@H](CO)C(=O)O)c3C[C@H]2C[C@H]1O` [Prodrug XIII, treprostinil serine amide], for which, in data set [1] (setting [7]), the solubility thermodynamic at 23 h is 3200 µg/mL (≈ 6.7 mM). In addition, the solubility thermodynamic at 24 h in data set [1] (setting [8]) was 3700 µg/mL (≈ 7.75 mM). Also, in data set [1] (setting [9]), the solubility thermodynamic at 72 h was found to be 3800 µg/mL (≈ 7.96 mM). In addition, in data set [1] (aqueous buffer, thermodynamic from solid, approximate, read-out: Solubility in the selected vehicle), the solubility at 23 h is around 3500 µg/mL (≈ 7.33 mM). Besides, in data set [2], the “Solution stability, T0 Purity” value was 97.66 % Area; the “Solution stability, T24 hours Purity” value is 97.81 % Area; the “Solution stability, T72 hours Purity” value is 97.58 % Area.
Turning to `CCCCC[C@H](O)CC[C@@H]1[C@H]2Cc3cccc(OCC(=O)NC(CC(=O)O)C(=O)O)c3C[C@H]2C[C@H]1O` (stereo partly drawn) [Prodrug XII, treprostinil aspartic acid amide], the solubility thermodynamic at 23 h in data set [1] (setting [7]) stood at 7400 µg/mL (≈ 14.6 mM). Besides, the solubility thermodynamic at 24 h in data set [1] (setting [8]) amounted to 7500 µg/mL (≈ 14.8 mM). In addition, the solubility thermodynamic at 72 h in data set [1] (setting [9]) was 7400 µg/mL (≈ 14.6 mM). In data set [2], the “Solution stability, T0 Purity” value is 98.70 % Area; the “Solution stability, T24 hours Purity” value was 98.68 % Area; the “Solution stability, T72 hours Purity” value worked out at 98.58 % Area.
Regarding `CCCCC[C@H](O)CC[C@@H]1[C@H]2Cc3cccc(OCC(=O)O)c3C[C@H]2C[C@H]1OC(=O)OC` [Prodrug III, cyclopentyl methyl carbonate of treprostinil], the solubility thermodynamic at 23 h in data set [1] (setting [7]) is 6100 µg/mL (≈ 13.6 mM). Further, in data set [1] (setting [8]), the solubility thermodynamic at 24 h came to 6000 µg/mL (≈ 13.4 mM). Also, the solubility thermodynamic at 72 h in data set [1] (setting [9]) is 6200 µg/mL (≈ 13.8 mM). In addition, in data set [2], the “T0 Residual Treprostinil” value stood at 0.15 % Area; the “Solution stability, T0 Purity” value was found to be 94.48 % Area; the “T24 Residual Treprostinil” value came out at 0.14 % Area; the “T72 Residual Treprostinil” value is listed as 0.15 % Area. Also, in data set [2], the “Solution stability, T24 hours Purity” value came out at 94.31 % Area and the “Solution stability, T72 hours Purity” value is listed as 94.61 % Area. Moreover, in data set [6], the stability in buffer result was “stable”.
`CCCCC[C@@H](CC[C@@H]1[C@H]2Cc3cccc(OCC(=O)O)c3C[C@H]2C[C@H]1O)OC(=O)N(C)C` [Prodrug II, treprostinil side-chain carbamate]: the “von Frey withdrawal force threshold vs PBS-treated group” value in data set [3] (setting [10]) is on record as “no statistically significant difference”. In addition, the “sensitivity to mechanical stimulation vs similar doses of treprostinil” value in data set [3] (both time points) is on record as “statistically significant reduced sensitivity”. In data set [5] (100 μg/mL (cycle 1)), the clinical score result is listed as “non-zero”. Also, the “clinical score vs PBS group” value in data set [5] (setting [12]) is recorded as “non-zero”; in data set [5] (100 μg/mL, both time points) it was “not statistically significantly different”. Moreover, the “clinical score vs similar doses of treprostinil” value in data set [5] (both time points) was “reduced clinical score”.
